Results on three molecules are retold here after patent publication US10048278B2, “Screening for neurotoxic amino acid associated with neurological disorders” (priority 2003, dated 2018).

Data set [1] is described as follows: BMAA in dried skin of flying fox museum specimens (HPLC). The conditions noted are these: Pteropus mariannus dried skin. The method, then:
BMAA levels were measured in tissues of Cycas micronesica Hill from Guam, and tissues of Pteropus mariannus mariannus, an indigenous flying fox (bat) of Guam. Because Pteropus mariannus mariannus is now highly endangered, BMAA levels were measured in skin tissue from museum specimens of three flying foxes that were collected five decades ago in Guam, preserved as dried study skins, and deposited at the Museum of Vertebrate Zoology (MVZ), at the University of California, Berkeley.
BMAA was detected using high performance liquid chromatography (HPLC), and results were confirmed with thin layer chromatography (TLC) and gas chromatography-mass spectroscopy (GC-MS). For BMAA analysis, free amino acid extracts of flying fox and cycad tissues were prepared. Tissue samples were rehydrated for 30 minutes with water or trichloroacetic acid (mean tissue prep 80 mg/ml±32 SD), macerated, and filtered. Extracts were derivatized with 6-aminoquinolyl-N-hydrozysuccinimidyl carbamate (ACQ) following standardized protocols. […] The concentration of BMAA in samples was determined by the fluorescent tag using a Waters 2487 Dual-1 Fluorescence Detector, with excitation at 250 nm and emission at 395 nm. Detection of the ACQ-derivatized BMAA was dependent on concentration and quantification was accomplished with comparison of equal amounts of BMAA and a norleucine internal standard (representing a single mid-range concentration) resulting in a mean response of 51.2%. […] The limits of detection (LOD, defined as the lowest concentration of an analyte in a sample that can be detected though not necessarily quantitated) and limits of quantification (LOQ, the concentration within the linear range of the calibration curve relating absorbance to concentration) were determined by a concentration gradient of an authenticated standard (Sigma Chemical Co., St. Louis, Mo.). […] For data interpretations, all sample analyses were quantified within the range of the LOQ or were reported as not detected (ND) (Table 1). […]

For data set [2] the following is noted: Banack & Cox, 2003; cited from earlier work.
The nature of data set [3]: Free and protein-associated BMAA in superior frontal gyrus tissue of patients. Further details: species or system human. As for the experimental part:
Tissues were provided by Dr. Patrick McGeer of the University of British Columbia, Vancouver, B.C., Canada. Autopsied tissues from patients were fixed in paraformaldehyde prior to storage in 15% buffered sucrose maintenance solution, where the time interval between death and autopsy varied from 4 hours to 5 days. Familial relationships, clinical histories, and histochemical characteristics of the Chamorro patients had been disclosed previously (McGeer et al, 1997, Neurology 49, 400-409). In addition, autopsied tissued from Canadian patients was provided, including two samples from two (2) Canadian patients who were clinically diagnosed with Alzheimer's disease prior to death, and thirteen (13) Canadian patients who died of natural causes other than progressive neurodegenerative diseases.
Tissues were homogenized twice in 0.1 N trichloroacetic acid and centrifuged at 15,800×g for 3 min to precipitate proteins and extract free amino acids. Protein-bound BMAA was released by hydrolysis of the precipitate at 110° C. in constant boiling 6N HCl for 24 hours. Particulate matter was removed from a 500 μl aliquot by ultrafiltration (Ultrafree-MC, Millipore Corp.) at 15,800×g and the resulting extract was freeze-dried. Amino acids were resuspended in 20 mM HCl, applied to a Sep-Pac C18 cartridge equilibrated with sequential washes of 100% methanol, 50% methanol in water, and a gradient of borate buffer:acetronitrile (0.5M borate:0-60% CH3CN) at 20% increments. BMAA in sample extracts was derivatized with 6-aminoquinolyl-N-hydroxysuccinimidyl carbamate following standardized protocols (Banack et al., 2003, Neurology 61: 387-389). Amino acids were quantified via HPLC separation as described above (Example 3). The presence of BMAA in the samples, as well as the identity and purity of the BMAA peak in the HPLC fractions, was verified by liquid chromatography mass spectroscopy (LC-MS) using an Agilent 1100 HPLC coupled with a variable wavelength diode array detector (DAD) and an SL single quadrapole MS with an atmospheric pressure ionization source (API) using the electrospray ionization interface (ESI). Compounds were separated on a Waters SymetryShield RP 18 column heated at 30° C. with a linear gradient elution of CH3CN (10 40%) in water. Nitrogen gas was purified and supplied to the ESI interface with a nebulizing pressure of 35 psi and two distinct modes were used for detection of compounds within the MS. The DAD detected compounds at 254 nm with a full spectral scan from 200 600 nm and 0.5 nm resolution within a semi micro flow cell. The initial signal was determined in positive scan mode with a 100 600 Da range at 50V fragmentor voltage. BMAA was identified using the extracted ion chromatogram in which the molecular ion peak was confirmed.

For data set [4] the following is noted: rats; cited from earlier work.
Data set [5] relates to cyanobacterial symbiont. Briefly: Effect of amino acid supplementation of BG-11 medium on cyanobacterial growth. Type of data set: cell-based, Nostoc. The conditions noted are these: BG-11 medium supplemented with glutamate or glutamine (0, 126, or 250 μmol/L). From the text:
Cyanobacterial symbionts were isolated from infected coralloid roots of Cycas micronesica Hill, harvested from three accessioned specimens (vouchered specimens of known provenance) growing in the National Tropical Botanical Garden, Kalaheo, Kauai, and grown as an axenic culture with repeated passages. For analysis of cycad root tissues infected with cyanobacterial symbiots, soil-borne bacteria were removed from root tissues of Cycas micronesica Hill by surface-sterilizing roots immersion in a solution of 70% ethanol for 3 min, followed by a 30 min immersion in 1.6% sodium hypochlorite with 2 drops of surfactant and 3 sequential washes with sterile deionized water. Surface-sterilized root explants (1-2 cm long) were excised and cultured onto standard BG-11 medium, pH 7.1 solidified with gellam gum (Sigma). Root explant cultures were incubated in a controlled environment room with a 16 h photoperiod at a light intensity of 35-45 μmole/m^2/s and temperatures of 25-30° C. After 7-10 days of culture, proliferation of colonies of the cyanobacterial symbiont of the root explants was clearly visible. Serial subculture of individual cyanobacterial colonies ensured the absence of residual BMAA from root tissue. […] Histological verification of culture purity was conducted prior to chemical analyses. […]

Setting [6] is: superior frontal gyrus, Alzheimer's, Canadian (first patient).
The mark [7] stands for this setting: superior frontal gyrus, Alzheimer's, Canadian (second patient).
The mark [8] stands for this setting: superior frontal gyrus, PDC (Lytico-bodig), Chamorro, donor one.

With `CNC[C@H](N)C(=O)O` [BMAA, β-N-methylamino-L-alanine], the Concentration was 1,879 μg/g in data set [1] (specimen 114606), 7,502 μg/g in data set [1] (specimen 114607) and 1,287 μg/g in data set [1] (specimen 114609). Further, the “stability in dried mammal specimens of great age” value in data set [2] is “stable”. Also, the “quantity of protein-bound BMAA compared to free BMAA” value in data set [3] (brain tissue, all other patients) is listed as 60-130 fold. The “BMAA recovered from the protein-bound fraction” value in data set [3] (brain tissue, one Lytico-Bodig (ALS-PDC) patient with no unbound BMAA) was “more than 1 mg/g”. Moreover, the “Protein-bound BMAA” value in data set [3] (frontal cortex tissue, all six Chamorro patients who had died from ALS-PDC) was 149 to 1190 µg/g; in data set [3] (setting [6]) it was 220 µg/g; in data set [3] (setting [7]) it was 264 µg/g; in data set [3] (setting [8]), 433 µg/g. The “Free BMAA” value was 3 to 10 µg/g in data set [3] (frontal cortex tissue, five of six Chamorro patients who had died from ALS-PDC); 3.4 µg/g in data set [3] (setting [6]); 9.7 µg/g in data set [3] (setting [7]); 3.3 µg/g in data set [3] (setting [8]). The “BMAA level in brain tissue” value in data set [3] (thirteen Canadian patients without Alzheimer's diagnosis who died of other causes) is on record as “did not have detectable levels”. In addition, the “injected BMAA not eliminated from either urine or feces” value in data set [4] is reported as 90%.
For the molecule `N[C@@H](CCC(=O)O)C(=O)O` [GLU, glutamic acid], the cyanobacterial growth result in data set [5] is on record as “increased two-fold”.
On the same count and under the same terms, the value for `NC(=O)CC[C@H](N)C(=O)O` [glutamine] was “increased two-fold”.
